# Read-outs that look alike come from different tables or passages of the source. Starred links: 1 amine or outer side, 2 acyl side, 3 side chain; linkers in the order of their positions; H or OH if unused. Positions of bridges follow the written chain, without caps; N, C: chain ends. Residues, ends and D or L forms follow the SMILES beside them. X1 = Clc1cc([*:1])cc(Cl)c1N=Nc1c(Cl)cc([*:2])cc1Cl
# What was measured:
# [1] = Serum stability study monitored by HPLC; format: in vitro ADME, human; conditions: 37 °C, HPLC 220 nm
# Procedure: The stability of SP1 in human serum was investigated and compared to the stability of its linear precursor P1 and the parent PMI (Fig. 6). The stability of the peptides at 37 °C in human serum was monitored throughout 5 days by HPLC.
# Fig. 6 Stability of the precursor peptide P1, the parent PMI and SP1 in human serum at 37 °C, over 5 days, monitored by HPLC at 220 nm. […]
# 6.2 Serum Stability Studies
# P1 and SP1 (10 μL, 10 mM stock in DMSO) were incubated with PBS (1x, 500 μL), human serum (50 μL) and caffeine (10 μL of a 11.25 mg/mL solution in MQ water) at 37 °C for 5 days. At specific intervals, aliquots (25 μL) of the reaction mixture were taken, flash frozen in liquid nitrogen and stored at -20 °C prior to analysis on the same day. Upon unfreezing, the samples were quenched with 25 μL of 96% ethanol and 25 μL of DMSO. The samples were spun at 13400 g for 10 minutes and the supernatant analysed by HPLC analysis, with a 5-95% B gradient (A: 0.05% (v/v) TFA in H2O, B: 0.05% (v/v) TFA in MeCN) over 18 minutes at 220 nm.
# Caffeine was used as an internal standard to enable quantification of degradation over time. The experiment was performed in duplicates (Table S2-4). […]
# [2] = target: T1, p53-interacting domain of human MDM2 (MDM2 6-125) (Homo sapiens, UniProt Q00987); experiment: MDM2 direct fluorescence polarisation binding assay; conditions: direct FP, 15 nM tracer, MDM2 titrated from 9.75 uM, 18-point, PBS 0.05% Tween-20 3% DMSO, 1:1 binding model
# T1 construct: human MDM2 (MDM26–125)
# T1 sequence (Q00987 6-125 limits assumed): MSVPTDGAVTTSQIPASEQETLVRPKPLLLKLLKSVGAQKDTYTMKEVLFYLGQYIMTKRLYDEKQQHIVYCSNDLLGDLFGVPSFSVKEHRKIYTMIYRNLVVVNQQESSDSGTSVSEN
# Procedure: To assess the binding affinity of the precursor peptide P1 and the photoswitchable stapled peptide SP1 for MDM2, a competitive fluorescence polarisation (FP) assay was carried out using the p53-interacting domain of human MDM2 (MDM26–125). […] The inhibitory constants (Ki) for all peptides were subsequently determined. […] This can be attributed the loss in α-helicity observed for P1, in comparison to that of PMI,[34] measured by CD analysis. To induce in situ isomerisation, SP1 was irradiated with red or purple light in FP buffer prior to commencing the experiment. […] The Ki values for each isomer were determined from their corresponding inflection points in the fitted sigmoidal curve. […]
# The half-life of the metastable cis SP1 form in FP assay buffer was determined by analytical HPLC analysis (Figure S3). […]
# P1 and SP1 (10 μL, 10 mM stock in DMSO) were incubated with PBS (1x, 500 μL), human serum (50 μL) and caffeine (10 μL of a 11.25 mg/mL solution in MQ water) at 37 °C for 5 days. […] The samples were spun at 13400 g for 10 minutes and the supernatant analysed by HPLC analysis, with a 5-95% B gradient (A: 0.05% (v/v) TFA in H2O, B: 0.05% (v/v) TFA in MeCN) over 18 minutes at 220 nm.
# Caffeine was used as an internal standard to enable quantification of degradation over time. […]
# 7 Fluorescence Polarisation (FP) Assay […]
# 7.1 MDM2 Fluorescence Polarisation Binding Assay […]
# [3] = human, human serum diluted in PBS, replicate 1, human serum 50 uL in PBS 500 uL, caffeine internal standard, read-out: Normalised Linker % (peptide remaining)
# [4] = human, human serum diluted in PBS, replicate 2, human serum 50 uL in PBS 500 uL, caffeine internal standard, read-out: Normalised Linker % (peptide remaining)
# [5] = human, human serum diluted in PBS, 24 h, replicate 2, human serum 50 uL in PBS 500 uL, caffeine internal standard, read-out: Normalised Linker % (peptide remaining)
compound,measurement,setting,value
CC(=O)N[C@H](C(=O)N[C@@H](CO)C(=O)N[C@@H](Cc1ccccc1)C(=O)N[C@@H](C)C(=O)N[C@H]1CSc2cc(Cl)c(c(Cl)c2)N=Nc2c(Cl)cc(cc2Cl)SC[C@@H](C(N)=O)NC(=O)[C@H](CO)NC(=O)[C@H](CC(C)C)NC(=O)CNC(=O)[C@H](CC(N)=O)NC(=O)[C@H](Cc2c[nH]c3ccccc23)NC(=O)[C@H](Cc2ccc(O)cc2)NC1=O)[C@@H](C)O [SP1] (Ac-TSFACYWNGLSC-NH2; linker 5-12 via X1),stability in human serum compared with P1 and PMI,"[1]; human serum, 5 days",markedly improved stability
same,"remaining at 2 h, 175 µM",[1]; [3],88.6%
same,"remaining at 2 h, 175 µM",[1]; [4],89%
same,"remaining at 24 h, 175 µM","[1]; human, human serum diluted in PBS, 24 h, replicate 1, human serum 50 uL in PBS 500 uL, caffeine internal standard, read-out: Normalised Linker % (peptide remaining)",82.9%
same,"remaining at 24 h, 175 µM",[1]; [5],72.4%
same,"remaining at 72 h, 175 µM",[1]; [3],79.2%
same,"remaining at 72 h, 175 µM",[1]; [4],53.6%
same,"remaining at 120 h, 175 µM",[1]; [3],82.4%
same,"remaining at 120 h, 175 µM",[1]; [4],48%
CC(=O)N[C@H](C(=O)N[C@@H](CO)C(=O)N[C@@H](Cc1ccccc1)C(=O)N[C@@H](C)C(=O)N[C@@H](CS)C(=O)N[C@@H](Cc1ccc(O)cc1)C(=O)N[C@@H](Cc1c[nH]c2ccccc12)C(=O)N[C@@H](CC(N)=O)C(=O)NCC(=O)N[C@@H](CC(C)C)C(=O)N[C@@H](CO)C(=O)N[C@@H](CS)C(N)=O)[C@@H](C)O [Peptide P1] (Ac-TSFACYWNGLSC-NH2),Normalised Linker % (peptide remaining),"[1]; 1 h, replicate 2, without the addition of TCEP, human serum 50 uL in PBS 500 uL, caffeine internal standard",0.000%
same,"remaining at 0.5 h, 175 µM","[1]; human serum diluted in PBS, 0.5 h, replicate 1, without the addition of TCEP, human serum 50 uL in PBS 500 uL, caffeine internal standard, read-out: Normalised Linker % (peptide remaining)",12.8%
same,"remaining at 1 h, 175 µM","[1]; human serum diluted in PBS, 1 h, replicate 1, without the addition of TCEP, human serum 50 uL in PBS 500 uL, caffeine internal standard, read-out: Normalised Linker % (peptide remaining)",0%
"CSCC[C@H](NC(=O)[C@H](Cc1ccccc1)NC(=O)[C@H](CCCNC(=N)N)NC(=O)c1ccc2c(c1)C(=O)OC21c2ccc(N(C)C)cc2Oc2cc(N(C)C)ccc21)C(=O)N[C@@H](CC(=O)O)C(=O)N[C@@H](Cc1ccc(O)cc1)C(=O)N[C@@H](Cc1c[nH]c2ccccc12)C(=O)N[C@@H](CCC(=O)O)C(=O)NCC(=O)N[C@@H](CC(C)C)C(N)=O [FP tracer peptide, TAMRA-RFMDYWEGL-NH2]",Kd,[2],7.6 nM
"Ac-TSFAEYWNNLSP-NH2 [PMI, reference compound]",Normalised Linker % (peptide remaining),"[1]; 24 h, replicate 1, human serum 50 uL in PBS 500 uL, caffeine internal standard",0.000%
same,"remaining at 1 h, 175 µM","[1]; human, human serum diluted in PBS, 1 h, replicate 1, human serum 50 uL in PBS 500 uL, caffeine internal standard, read-out: Normalised Linker % (peptide remaining)",87.2%
same,"remaining at 1 h, 175 µM","[1]; human, human serum diluted in PBS, 1 h, replicate 2, human serum 50 uL in PBS 500 uL, caffeine internal standard, read-out: Normalised Linker % (peptide remaining)",97.2%
same,"remaining at 3 h, 175 µM",[1]; [3],72.8%
same,"remaining at 3 h, 175 µM",[1]; [4],76.2%
same,"remaining at 6 h, 175 µM",[1]; [3],47.4%
same,"remaining at 6 h, 175 µM",[1]; [4],32.7%
same,"remaining at 9 h, 175 µM",[1]; [3],23.2%
same,"remaining at 9 h, 175 µM",[1]; [4],11.3%
same,"remaining at 24 h, 175 µM",[1]; [5],0%

# From PMC10763561, “Red-light modulated ortho-chloro azobenzene photoswitch for peptide stapling via aromatic substitution” (RSC Chemical Biology, 2023)
